Key:
[1] = RP-HPLC determination of capacity factors and log Po/w (Supelcosil LC-ABZ, MOPS buffer pH 7.4/methanol); settings: for log k’0: capacity factor extrapolated to 0% methanol; for RP-HPLC log Po/w: from log k’0 by Equation (1); for Capacity factors log k’40: 40% methanol; for Capacity factors log k’40 / Capacity factors log k’50 / Capacity factors log k’60 / Capacity factors log k’70: MOPS buffer pH 7.4; for Capacity factors log k’50: 50% methanol; for Capacity factors log k’60: 60% methanol; for Capacity factors log k’70: 70% methanol; for Capacity factors log k’0: extrapolated to 0% methanol; for chromatographic logP: pH 7.4, RP-HPLC log Po/w
Procedure: The RP-HPLC methods of Minick and Lombardo [53] were considered for estimating the n-octanol/water partition coefficients (log Po/w) of QdO. The inorganic salts and the reference compounds were, at least, of analytical grade (Sigma Aldrich and Fluka) and used without further purification. HPLC-grade methanol, n-octanol (Sigma-Aldrich) and bi-distilled water were used to prepare the mobile phase.
The other chromatographic conditions were: flow 1.0 mL/min^−1; isocratic elution, UV-visible detector set at the wavelength with maximum absorbance (260 and 210 nm). The test solutions were 0.3 mM in the desired compound. All the experiments were performed at 25 ± 2 °C at least twice.
The capacity factors were calculated according to Equation (2): […]
In order to judge if the experimentally measured log k’0 can be used to predict the log Po/w value, a calibration curve was created with the capacity factors of the reference compounds and a linear regression equation between the log Po/w and log k’0 was determined.
The robustness of the model and its predictivity were evaluated by the leave-one-out (LOO) cross-validation procedure. According to this procedure, the log Po/w value of each compound in the reference data set is predicted by the equations derived from all the other compounds except the predicted one. At the end of this procedure two values are available for each reference compound, the reference shake-flask log Po/w value (yi) and the predicted one (ŷi). […] The regression coefficient (R^2LOO) is defined by Equation (5): [drawing 8] (5) where [drawing 9] is the mean of the reference shake-flask log Po/w value and n is the number of reference compounds. A high value of R^2LOO indicates a good predictive ability of the model. The root mean squared error in prediction (RMSELOO) is calculated with Equation (6): [drawing 10] (6)

[2] = reference compounds; reference values; ref OECD Guidelines [39]; cited from earlier work
[3] = parameters: method as in earlier work; settings: reduction peak potential; cited from earlier work
[4] = reference compounds, leave-one-out cross-validation

| LOO-predicted RP-HPLC log Po/w ([1]; pH 7.4) | Capacity factors log k’40 [1] | Capacity factors log k’50 [1] | Capacity factors log k’60 [1] | Capacity factors log k’70 [1] | Capacity factors log k’0 ([1]; pH 7.4) | chromatographic logP [1] | Compound | log k’0 ([1]; reference compounds, pH 7.4) | RP-HPLC log Po/w ([1]; reference compounds) | LOO-predicted RP-HPLC log Po/w [1, 4] | log Po/w [2] | Epc,1 [3] |
| --- | --- | --- | --- | --- | --- | --- | --- | --- | --- | --- | --- | --- |
|  |  |  |  |  |  |  | CCC(C)=O [Compound 1, 2-Butanone, reference compound] | −0.06 | 0.21 | 0.15 | 0.3 |  |
|  |  |  |  |  |  |  | Nc1ccccc1 [Compound 2, Aniline, reference compound] | 0.67 | 0.94 | 0.96 |  |  |
| 1.19 |  |  |  |  |  |  | CC(=O)Nc1ccccc1 [Compound 3, Acetanilide, reference compound] | 0.88 | 1.15 |  |  |  |
| 1.52 |  |  |  |  |  |  | CC(=O)c1ccccc1 [Compound 4, Acetophenone, reference compound] | 1.27 | 1.54 |  |  |  |
|  |  |  |  |  |  |  | c1ccccc1 [Compound 5, Benzene, reference compound] | 1.87 | 2.14 |  |  |  |
|  |  |  |  |  |  |  | Clc1ccccc1 [Compound 6, Chlorobenzene, reference compound] | 2.62 | 2.89 | 2.90 |  |  |
|  |  |  |  |  |  |  | Brc1ccccc1 [Compound 7, Bromobenzene, reference compound] | 2.84 |  |  |  |  |
|  |  |  |  |  |  |  | c1ccc2ccccc2c1 [Compound 8, Naphthalene, reference compound] | 3.15 | 3.42 |  |  |  |
|  | 0.28 | −0.05 | −0.34 | −0.64 | 1.49 | 1.76 | Cc1c(C(=O)NCc2ccccc2)[n+]([O-])c2ccccc2[n+]1[O-] [Compound 10] |  |  |  |  |  |
|  | 0.35 | 0.07 | −0.24 | −0.56 | 1.58 | 1.85 | Cc1ccc2c(c1)[n+]([O-])c(C(=O)NCc1ccccc1)c(C)[n+]2[O-] [Compound 11] |  |  |  |  | −1.658 |
|  | 0.65 | 0.30 | −0.05 | −0.36 | 1.98 | 2.25 | Cc1c(C(=O)NCc2ccccc2)[n+]([O-])c2cc(Cl)ccc2[n+]1[O-] [Compound 12] |  |  |  |  | −1.482 |
|  | 0.98 | 0.66 | 0.27 | −0.11 | 2.46 | 2.72 | Cc1c(C(=O)NCc2ccccc2)[n+]([O-])c2cc(Cl)c(Cl)cc2[n+]1[O-] [Compound 13] |  |  |  |  | −1.211 |
|  | 0.36 | 0.05 | −0.26 | −0.58 | 1.61 | 1.88 | Cc1c(C(=O)NCCc2ccccc2)[n+]([O-])c2ccccc2[n+]1[O-] [Compound 14] |  |  |  |  | −1.625 |
|  | 0.47 | 0.21 | −0.13 | −0.45 | 1.73 | 2 | Cc1ccc2c(c1)[n+]([O-])c(C(=O)NCCc1ccccc1)c(C)[n+]2[O-] [Compound 15] |  |  |  |  | −1.649 |
|  | 0.69 | 0.36 | 0.00 | −0.37 | 2.11 | 2.38 | Cc1c(C(=O)NCCc2ccccc2)[n+]([O-])c2cc(Cl)ccc2[n+]1[O-] [Compound 16] |  |  |  |  | −1.525 |
|  | 1.07 | 0.74 | 0.34 | −0.06 | 2.60 | 2.87 | Cc1c(C(=O)NCCc2ccccc2)[n+]([O-])c2cc(Cl)c(Cl)cc2[n+]1[O-] [Compound 17] |  |  |  |  | −1.387 |
|  | 0.85 | 0.48 | 0.11 | −0.24 | 2.30 | 2.57 | Cc1c(C(=O)NCc2ccc(Br)cc2)[n+]([O-])c2ccccc2[n+]1[O-] [Compound 18] |  |  |  |  | −1.540 |
|  | 0.94 | 0.60 | 0.21 | −0.16 | 2.43 | 2.69 | Cc1ccc2c(c1)[n+]([O-])c(C(=O)NCc1ccc(Br)cc1)c(C)[n+]2[O-] [Compound 19] |  |  |  |  | −1.580 |
|  | 1.22 | 0.84 | 0.42 | 0.02 | 2.83 | 3.09 | Cc1c(C(=O)NCc2ccc(Br)cc2)[n+]([O-])c2cc(Cl)ccc2[n+]1[O-] [Compound 20] |  |  |  |  | −1.445 |
|  | 1.60 | 1.15 | 0.65 | 0.19 | 3.51 | 3.78 | Cc1c(C(=O)NCc2ccc(Br)cc2)[n+]([O-])c2cc(Cl)c(Cl)cc2[n+]1[O-] [Compound 21] |  |  |  |  | −1.363 |
|  | 0.62 | 0.25 | −0.10 | −0.44 | 2.02 | 2.29 | Cc1ccc(CNC(=O)c2c(C)[n+]([O-])c3ccccc3[n+]2[O-])cc1 [Compound 22] |  |  |  |  | −1.580 |
|  | 0.66 | 0.34 | −0.01 | −0.36 | 2.02 | 2.29 | Cc1ccc(CNC(=O)c2c(C)[n+]([O-])c3ccc(C)cc3[n+]2[O-])cc1 [Compound 23] |  |  |  |  | −1.590 |
|  | 0.93 | 0.54 | 0.15 | −0.25 | 2.51 | 2.77 | Cc1ccc(CNC(=O)c2c(C)[n+]([O-])c3ccc(Cl)cc3[n+]2[O-])cc1 [Compound 24] |  |  |  |  | −1.489 |
|  | 1.33 | 0.93 | 0.54 | 0.14 | 2.91 | 3.18 | Cc1ccc(CNC(=O)c2c(C)[n+]([O-])c3cc(Cl)c(Cl)cc3[n+]2[O-])cc1 [Compound 25] |  |  |  |  |  |
|  | 1.06 | 0.62 | 0.14 | −0.33 | 2.92 | 3.18 | Cc1c(C(=O)NCC(c2ccccc2)c2ccccc2)[n+]([O-])c2ccccc2[n+]1[O-] [Compound 26] |  |  |  |  | −1.591 |
|  | 1.21 | 0.80 | 0.33 | −0.12 | 3.02 | 3.28 | Cc1ccc2c(c1)[n+]([O-])c(C(=O)NCC(c1ccccc1)c1ccccc1)c(C)[n+]2[O-] [Compound 27] |  |  |  |  | −1.640 |
|  | 1.38 | 0.91 | 0.38 | −0.13 | 3.42 | 3.69 | Cc1c(C(=O)NCC(c2ccccc2)c2ccccc2)[n+]([O-])c2cc(Cl)ccc2[n+]1[O-] [Compound 28] |  |  |  |  | −1.491 |
|  | 1.78 | 1.31 | 0.76 | 0.25 | 3.86 | 4.12 | Cc1c(C(=O)NCC(c2ccccc2)c2ccccc2)[n+]([O-])c2cc(Cl)c(Cl)cc2[n+]1[O-] [Compound 29] |  |  |  |  | −1.410 |
